Columns and labels:
[1] = tested on: platelet rich plasma; experiment: Platelet aggregation in platelet rich plasma from injected rabbit (ex vivo); details: injected with about 72 mg/kg of body weight; blood sample after 5 hours
Description: (§1) A rabbit is injected with about +72 mg/kg of body weight of triethyl amine bisulfite. After a period of 5 hours, a blood sample was withdrawn and centrifuged at 1000 r.p.m. (220 g) for 10 minutes to give a platelet rich plasma. […] It is concluded that triethyl amine bisulfite is an agent which inhibits thrombotic condition formation in vivo.
as §1, with “72” for “+72”, “sodium formaldehyde” for “triethyl amine”, “minuts” for “minutes”, “thrombus” for “thrombotic condition”

[2] = tested on: platelet rich plasma; experiment: Platelet aggregation in platelet rich plasma, ADP stimulus (Example 25); format: cell-based; details: plasma first treated with the compound
Text: Plasma was centrifuged at 1000 r.p.m. (200 g) to prepare a platelet rich plasma. Using adosine diphosphate (ADP) as a stimulous, rapid aggregation of platelets in the plasma was efected. On the other hand, when such plasma is first treatd with (a) tetramethyl ammonium sulfite, (b) tetramethyl ammonium bisulfite, and then (c) tetrabutyl

[3] = molecular target: T1, FIBRINOGEN (Homo sapiens, UniProt P02671+P02675+P02679); experiment: Coagulation factor assay (Biggs): fibrinogen; format: biochemical; details: mean of 2 experiments; control 205
T1 construct: from tissue; host or cells: human plasma
T1 sequence (P02671 20-629 limits assumed): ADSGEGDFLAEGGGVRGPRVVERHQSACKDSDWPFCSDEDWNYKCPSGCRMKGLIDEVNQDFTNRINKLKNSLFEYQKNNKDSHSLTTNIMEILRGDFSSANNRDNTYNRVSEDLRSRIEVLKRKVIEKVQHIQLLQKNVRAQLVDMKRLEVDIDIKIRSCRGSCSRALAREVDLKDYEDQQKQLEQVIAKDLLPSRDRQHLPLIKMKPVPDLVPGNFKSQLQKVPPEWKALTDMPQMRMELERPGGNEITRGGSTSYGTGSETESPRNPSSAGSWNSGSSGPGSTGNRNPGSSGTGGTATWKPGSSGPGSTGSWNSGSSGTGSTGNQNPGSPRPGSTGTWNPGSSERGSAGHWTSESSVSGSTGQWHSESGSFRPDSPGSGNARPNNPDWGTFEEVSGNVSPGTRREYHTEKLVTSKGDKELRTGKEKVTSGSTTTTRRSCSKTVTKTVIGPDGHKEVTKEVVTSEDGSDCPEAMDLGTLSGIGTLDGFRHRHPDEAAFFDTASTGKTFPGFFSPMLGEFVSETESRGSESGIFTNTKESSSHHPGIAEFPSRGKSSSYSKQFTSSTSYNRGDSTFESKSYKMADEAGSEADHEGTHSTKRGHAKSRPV
T1 sequence (P02675 31-491): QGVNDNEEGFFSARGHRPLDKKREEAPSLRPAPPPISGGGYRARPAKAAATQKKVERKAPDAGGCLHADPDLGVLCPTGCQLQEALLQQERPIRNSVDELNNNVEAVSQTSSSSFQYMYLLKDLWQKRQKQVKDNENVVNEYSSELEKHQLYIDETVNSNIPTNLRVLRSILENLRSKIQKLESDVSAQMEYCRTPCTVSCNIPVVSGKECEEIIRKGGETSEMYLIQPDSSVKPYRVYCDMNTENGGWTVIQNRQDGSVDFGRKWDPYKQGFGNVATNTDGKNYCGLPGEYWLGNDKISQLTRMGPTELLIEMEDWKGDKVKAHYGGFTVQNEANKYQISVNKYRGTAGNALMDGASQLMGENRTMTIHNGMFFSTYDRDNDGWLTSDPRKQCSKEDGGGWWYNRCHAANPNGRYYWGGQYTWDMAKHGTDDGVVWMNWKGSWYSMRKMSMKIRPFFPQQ
T1 sequence (P02679 27-453): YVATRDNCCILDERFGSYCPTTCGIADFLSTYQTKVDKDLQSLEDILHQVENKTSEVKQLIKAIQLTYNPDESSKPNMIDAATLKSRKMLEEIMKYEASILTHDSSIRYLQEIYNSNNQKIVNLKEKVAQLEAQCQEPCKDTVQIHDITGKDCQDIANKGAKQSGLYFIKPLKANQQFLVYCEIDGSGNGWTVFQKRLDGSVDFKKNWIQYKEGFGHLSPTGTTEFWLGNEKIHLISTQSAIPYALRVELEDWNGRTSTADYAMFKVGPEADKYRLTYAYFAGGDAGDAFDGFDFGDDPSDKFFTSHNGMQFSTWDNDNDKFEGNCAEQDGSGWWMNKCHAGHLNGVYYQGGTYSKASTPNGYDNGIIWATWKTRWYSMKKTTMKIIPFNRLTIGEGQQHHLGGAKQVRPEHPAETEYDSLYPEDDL

[4] = molecular target: T2, F VIII (Homo sapiens, UniProt P00451); experiment: Coagulation factor assay (Biggs): Factor VIII; format: biochemical; details: for F VIII (%): U.S.P. grade, control 57
T2 construct: from tissue; host or cells: human plasma
Description: (§2) The effect of U.S.P. grade sodium bisulfite on blood coagulation factors is evaluated by standard procedures (Biggs) and the results are shown in Table III below.
References for PT, PTT, and assays of all the coagulation factors can be found in a standard textbook, entitled "Human Blood Coagulation, Haemostasis and Thrombosis", edited by Rosemary Biggs, published by Blackwell Scientific Publications, Oxford, England (2nd edition), pages 670-705, 1976.

[5] = tested on: human plasma; experiment: Thrombin time (TT) in vitro, standard method; format: biochemical; details: U.S.P. grade, control 12.00
Description: as §2

[6] = tested on: rat plasma; experiment: Blood coagulation tests (PT, PTT, coagulation factors) in vitro; format: biochemical
Text: The alkali metalbisulfites, sodium and potassium, and ammonium bisulfite are found to prolong PT and PTT in a dose-related fashion.

[7] = Human use, oral drops with meals (case histories); format: in vivo
Text: To evaluate the effect of sodium bisulfite in human use (this agent being known to be safe for human consumption), certain patients received this agent. The case history and observations are summarized individually below.
In each case, each patient is provided with such a bottle of Solution D, unless otherwise noted, and is instructed to dose himself (or herself, as the case may be) from the bottle so provided at the rate of seven drops to be taken orally with each of his (her) three daily meals. When the contents of one such bottle is thus so gradually consumed by an individual patient, another is provided to him (her).

T2 sequence (P00451 20-2351): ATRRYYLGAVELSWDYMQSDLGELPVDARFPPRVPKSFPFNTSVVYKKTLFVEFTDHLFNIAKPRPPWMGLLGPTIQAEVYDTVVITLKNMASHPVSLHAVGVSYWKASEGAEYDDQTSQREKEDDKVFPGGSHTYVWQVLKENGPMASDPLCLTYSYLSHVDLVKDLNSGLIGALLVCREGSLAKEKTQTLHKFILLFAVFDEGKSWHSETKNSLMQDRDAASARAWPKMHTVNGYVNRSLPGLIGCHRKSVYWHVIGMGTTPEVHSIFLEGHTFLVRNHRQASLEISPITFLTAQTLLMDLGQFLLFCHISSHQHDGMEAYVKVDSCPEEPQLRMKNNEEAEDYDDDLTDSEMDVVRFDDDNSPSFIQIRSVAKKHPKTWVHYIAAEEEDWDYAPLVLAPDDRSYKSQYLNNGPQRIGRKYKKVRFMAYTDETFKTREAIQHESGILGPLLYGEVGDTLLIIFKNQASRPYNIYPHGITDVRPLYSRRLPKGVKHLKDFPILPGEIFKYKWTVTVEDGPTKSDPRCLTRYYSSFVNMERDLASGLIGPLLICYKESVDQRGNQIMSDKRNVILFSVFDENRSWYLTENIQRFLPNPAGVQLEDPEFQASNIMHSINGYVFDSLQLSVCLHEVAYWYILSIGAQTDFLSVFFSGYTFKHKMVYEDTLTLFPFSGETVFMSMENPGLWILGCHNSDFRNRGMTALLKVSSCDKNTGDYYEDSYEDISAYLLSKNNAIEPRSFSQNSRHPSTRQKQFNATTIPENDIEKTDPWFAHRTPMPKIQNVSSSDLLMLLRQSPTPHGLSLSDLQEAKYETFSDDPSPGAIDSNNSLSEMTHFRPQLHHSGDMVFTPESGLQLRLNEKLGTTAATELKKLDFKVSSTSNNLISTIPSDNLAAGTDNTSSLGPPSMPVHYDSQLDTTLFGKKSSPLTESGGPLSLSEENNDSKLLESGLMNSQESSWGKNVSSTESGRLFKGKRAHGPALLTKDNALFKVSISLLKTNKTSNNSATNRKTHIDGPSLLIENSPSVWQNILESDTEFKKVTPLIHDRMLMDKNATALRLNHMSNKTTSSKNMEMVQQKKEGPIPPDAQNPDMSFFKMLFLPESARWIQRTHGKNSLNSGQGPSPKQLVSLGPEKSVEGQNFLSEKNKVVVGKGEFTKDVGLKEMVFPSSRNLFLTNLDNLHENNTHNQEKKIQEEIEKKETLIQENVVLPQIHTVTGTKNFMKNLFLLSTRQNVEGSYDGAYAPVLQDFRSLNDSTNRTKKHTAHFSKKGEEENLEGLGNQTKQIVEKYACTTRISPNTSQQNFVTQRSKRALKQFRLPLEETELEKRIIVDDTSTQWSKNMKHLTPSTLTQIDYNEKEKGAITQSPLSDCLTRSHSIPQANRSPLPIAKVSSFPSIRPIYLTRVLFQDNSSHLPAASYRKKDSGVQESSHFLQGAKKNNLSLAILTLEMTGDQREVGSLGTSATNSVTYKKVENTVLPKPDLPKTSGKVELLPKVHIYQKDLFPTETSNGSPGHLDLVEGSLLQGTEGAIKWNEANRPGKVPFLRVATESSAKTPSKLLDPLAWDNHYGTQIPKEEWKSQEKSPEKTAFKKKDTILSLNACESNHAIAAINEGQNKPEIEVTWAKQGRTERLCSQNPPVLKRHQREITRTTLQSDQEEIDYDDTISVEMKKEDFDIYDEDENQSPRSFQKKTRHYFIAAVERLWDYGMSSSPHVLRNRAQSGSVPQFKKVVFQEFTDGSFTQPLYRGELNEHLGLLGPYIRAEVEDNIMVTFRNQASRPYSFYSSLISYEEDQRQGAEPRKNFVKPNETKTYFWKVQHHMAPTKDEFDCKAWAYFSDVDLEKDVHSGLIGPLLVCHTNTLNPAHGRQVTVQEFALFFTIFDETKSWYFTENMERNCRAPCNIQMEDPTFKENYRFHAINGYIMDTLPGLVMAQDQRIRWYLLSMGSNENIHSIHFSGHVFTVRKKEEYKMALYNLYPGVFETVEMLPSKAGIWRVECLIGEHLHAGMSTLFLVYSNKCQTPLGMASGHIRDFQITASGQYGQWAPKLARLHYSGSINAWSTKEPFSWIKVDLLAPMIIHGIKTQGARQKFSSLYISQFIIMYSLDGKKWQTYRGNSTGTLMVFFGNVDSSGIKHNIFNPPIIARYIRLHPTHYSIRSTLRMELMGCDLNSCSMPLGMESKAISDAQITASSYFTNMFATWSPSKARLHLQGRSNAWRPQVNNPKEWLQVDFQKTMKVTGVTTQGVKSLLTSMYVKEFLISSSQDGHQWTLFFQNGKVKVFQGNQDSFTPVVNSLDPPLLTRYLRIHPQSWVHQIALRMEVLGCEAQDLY

In the case of `CCN(CC)CC.O=S(O)O` [TRIETHYL AMINE BISULFITE, triethyl amine bisulfite], the “aggregation of platelets in comparison with an untreated rabbit” value [1] is reported as “markedly decreased”.
For `C[N+](C)(C)C` [Tetramethyl-ammonium bisulfite], the “platelet aggregation, adosine diphosphate (ADP) as a stimulous” value [2] was “inhibited” and the “Fibrinogen (%)” value [3] was 170%.
In the case of Sodium bisulfite, the “effect on Factor VIII” value [4] is reported as “mildly affected”, the “F VIII (%)” value ([4]; 0.01 mg/ml) is reported as 62% and the “F VIII (%)” value ([4]; 0.05 mg/ml) is reported as 68%. The “F VIII (%)” value ([4]; 0.1 mg/ml) was 55%, the “F VIII (%)” value ([4]; 0.5 mg/ml) was 58% and the “F VIII (%)” value ([4]; 1.0 mg/ml) was 29%. The “F VIII (%)” value ([4]; 5.0 mg/ml) was 11%, the “TT” value ([5]; 0.01 mg/ml) was 12.07 s and the “TT” value ([5]; 0.05 mg/ml) was 12.10 s. The “TT” value ([5]; 0.1 mg/ml) was 12.00 s, the “TT” value ([5]; 0.5 mg/ml) was 13.97 s and the “TT” value ([5]; 1.0 mg/ml) was 16.08 s. For the same compound, the “TT” value ([5]; 5.0 mg/ml) was 34.3 s, the “PT and PTT (effect in words)” value ([6]; rat plasma in vitro, 0.5 mg/ml) was “significantly prolong” and the “blood coagulation factors” value ([6]; rat plasma, compared with human plasma) was “not as sensitive”. For the same compound, the “Case IV: blood cholesterol value” ([7]; after about 5 years of medication, before between 200 and 220 mg %) was “about 144 mg %” and the “Case IV: hypertension, arthritis, arrithmia, hemorrhoids, dispepsia, cyanotic fingers and toes, malaise, lassitude” value ([7]; man, Solutions A, B, C, or D orally, up to 20 drops per meal, within 2-3 months) was “all of the above identified conditions improved (except for diabetes)”.

Reference: patent publication EP0043274A2, “Antithrombotic treatment” (priority 1980, dated 1982)
